Experimental findings from PubChem BioAssay (NCI) are described below.

Among the test systems are K-562 leukemia; NCI-H226 lung; SNB-75 CNS; A549 NSCLC; A498 renal; SF-539 CNS; RPMI-8226 leukemia; UACC-257 melanoma; RXF 393 renal; TK-10 renal; SK-MEL-2 melanoma; SN12C renal; MCF7 breast; NCI-H23 lung; OVCAR-3 ovarian; ACHN renal; HOP-62 NSCLC; M14 melanoma; SW-620 colon.
What all share (test): growth of human tumour cells (NCI), 48 h

Molecules are shown by their SMILES.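 Each compound was tested at five concentrations against cells in 96-well plates for 48 hours. TGI denotes the concentration required for complete inhibition of growth.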

`CC1(C)OC(=O)CC12CCN(Cc1ccccc1)CC2`: the TGI in the test with K-562 leukemia, in the test on NCI-H226 lung, in the test with SNB-75 CNS, in the test with A549 NSCLC, with A498 renal and in the test with SF-539 CNS was more than 100 µM each time. The TGI in the test with RPMI-8226 leukemia, in the test with UACC-257 melanoma, in the test on RXF 393 renal, in the test with TK-10 renal, in the test with SK-MEL-2 melanoma and in the test with SN12C renal was more than 100 µM throughout. In addition, the TGI with MCF7 breast, in the test on NCI-H23 lung, in the test on OVCAR-3 ovarian, in the test on ACHN renal and with HOP-62 NSCLC was more than 100 µM throughout.
As for `CCn1c(=O)c2c3ccc(O)cc3oc2c2ccc(O)cc21`, the TGI with K-562 leukemia, in the test with NCI-H226 lung, in the test with M14 melanoma, in the test with SNB-75 CNS, in the test on A549 NSCLC and in the test on SW-620 colon was more than 100 µM in each case. Further, the TGI in the test with A498 renal was 84.5 µM; with SF-539 CNS it was more than 100 µM; with UACC-257 melanoma, more than 100 µM; in the test with RXF 393 renal, more than 100 µM; in the test with TK-10 renal, more than 100 µM; in the test on SN12C renal it was more than 100 µM. Also, the TGI was more than 100 µM in the test with MCF7 breast; more than 100 µM with NCI-H23 lung; more than 100 µM in the test with OVCAR-3 ovarian; 88 µM in the test with ACHN renal; more than 100 µM in the test on HOP-62 NSCLC.
In the case of `CCOC(=O)/C(=C\NC(C)(C)C)c1nc2ccccc2o1`, the TGI was 63.4 µM with NCI-H226 lung; more than 100 µM in the test with M14 melanoma; more than 100 µM in the test with SNB-75 CNS; more than 100 µM in the test on A549 NSCLC; more than 100 µM in the test with SW-620 colon; more than 100 µM in the test on A498 renal. Further, the TGI with SF-539 CNS was more than 100 µM; in the test on RPMI-8226 leukemia it was 50.8 µM; with UACC-257 melanoma, 51.1 µM; in the test on RXF 393 renal, 67.1 µM; with TK-10 renal it was more than 100 µM; with SN12C renal, more than 100 µM. The TGI in the test with MCF7 breast is more than 100 µM; in the test on NCI-H23 lung it was more than 100 µM; in the test on OVCAR-3 ovarian, more than 100 µM; with ACHN renal, 68.5 µM; with HOP-62 NSCLC, more than 100 µM.
As to `CC(C)=CCC[C@@H](C)C1=C(Nc2ccccc2)C(O)=C(C)C(=O)C1=O`, the TGI was more than 39.9 µM in the test with K-562 leukemia; 18.1 µM in the test with NCI-H226 lung; 15.6 µM in the test on M14 melanoma; 15.6 µM with SNB-75 CNS; 13.5 µM in the test on A549 NSCLC; more than 48 µM in the test on SW-620 colon. For the same molecule, the TGI in the test on A498 renal was more than 30.4 µM; with RPMI-8226 leukemia, more than 100 µM; with UACC-257 melanoma, 41.9 µM; in the test on RXF 393 renal, 21.3 µM; with TK-10 renal it was more than 55.1 µM; with SK-MEL-2 melanoma, 19.8 µM. The TGI in the test with SN12C renal is 41.6 µM; in the test with MCF7 breast, 22.5 µM; in the test with NCI-H23 lung it was 12.9 µM; with OVCAR-3 ovarian, 8.97 µM; with HOP-62 NSCLC it was 15.6 µM.
For `CC(C)N1CCCOC(c2ccc([N+](=O)[O-])cc2)O1` (centres undefined), the TGI in the test on K-562 leukemia, with NCI-H226 lung, in the test on M14 melanoma, in the test on SNB-75 CNS, with A549 NSCLC and with SW-620 colon was more than 100 µM in each case. Besides, the TGI in the test with A498 renal, in the test on SF-539 CNS, with UACC-257 melanoma, in the test with RXF 393 renal, with TK-10 renal and with SK-MEL-2 melanoma was more than 100 µM in each case. Further, the TGI with SN12C renal, in the test with MCF7 breast, with NCI-H23 lung, with OVCAR-3 ovarian, in the test on ACHN renal and in the test with HOP-62 NSCLC was more than 100 µM each time.
As to `CC(CCC(=O)O)[C@H]1CCC2[C@H]3C(CC(=O)[C@@]21C)[C@@]1(C)CCC(O)C[C@H]1C[C@@H]3O` (some centres undefined), the TGI with K-562 leukemia, in the test on NCI-H226 lung, in the test on M14 melanoma, in the test on SNB-75 CNS, with A549 NSCLC and in the test with SW-620 colon was more than 100 µM each time. In addition, the TGI in the test with A498 renal, with SF-539 CNS, with RPMI-8226 leukemia, with UACC-257 melanoma, in the test with RXF 393 renal and in the test on SK-MEL-2 melanoma was more than 100 µM in each case. The TGI with SN12C renal, in the test on MCF7 breast, with NCI-H23 lung, with ACHN renal and with HOP-62 NSCLC was more than 100 µM throughout.
With `O=c1c2c3c(sc2nc2n1N=CN(c1ccc(Cl)cc1)C2)CCCC3`, the TGI in the test on K-562 leukemia, in the test with NCI-H226 lung, in the test with M14 melanoma, in the test with SNB-75 CNS, in the test with A549 NSCLC and with SW-620 colon was more than 100 µM throughout. Further, the TGI with A498 renal, in the test with RPMI-8226 leukemia, in the test on UACC-257 melanoma, in the test with RXF 393 renal, in the test on TK-10 renal and in the test on SK-MEL-2 melanoma was more than 100 µM in each case. Further, the TGI in the test on SN12C renal, in the test on MCF7 breast, in the test on NCI-H23 lung, with OVCAR-3 ovarian, in the test on ACHN renal and in the test on HOP-62 NSCLC was more than 100 µM throughout.
On to `O=C(O)CCSc1nnc(COc2ccc(Cl)cc2)n1-c1ccccc1`, for which the TGI in the test with K-562 leukemia, with NCI-H226 lung, with M14 melanoma, with SNB-75 CNS, in the test on A549 NSCLC and in the test on SW-620 colon was more than 100 µM in each case. Also, the TGI with A498 renal, in the test with SF-539 CNS, in the test on UACC-257 melanoma, in the test with RXF 393 renal, with TK-10 renal and in the test on SK-MEL-2 melanoma was more than 100 µM in each case. In addition, the TGI with SN12C renal, in the test with MCF7 breast, in the test with NCI-H23 lung, in the test with OVCAR-3 ovarian, in the test with ACHN renal and in the test on HOP-62 NSCLC was more than 100 µM each time.
